Reference: US20150290232A1, “DRUG COMPOSITION FOR TREATING TUMORS AND APPLICATION THEREOF” (priority 2012, published 2015)
Like-named read-outs stand apart in the source and are kept apart here.

Tests used:
[1] = test system: leukemic cell lines L1210 and P388; settings: mice inoculated with L1210 and P388, 0.5-5 mg/kg/day for 10 consecutive days; cited from earlier work
[2] = Example 5: body weight of tumor-bearing nude mice; format: in vivo, BALB/c-nu nude mice
Description: Under sterile conditions, the above tumor cells were collected in the logarithmic growth phase. A549 was injected by subcutaneous injection in an amount of 6×10 6/0.2 mL/nude mice (cell viability>90%) into the right subaxillary of the nude mice, thus establishing transplated tumor models of lung cancer in nude mice. The mice were administered from the second day after the inoculation. […] Each mouse was intragastrically administered in 0.4 ml each time and 2 times a day, at 8:00, and 14:00. The administrations were successive for 14 days. The day before administration was deemed as Day 0 and the body weight and tumor size of the mice were determined every 5 days to produce a dynamic plot on body weight and tumor growth. On Day 20, the mice were sacrificed and the tumors were taken out and weighed. The tumor inhibition rate (%) was calculated after the effect of the medicament based on a tumor inhibition rate of the control group being zero.
(§1) The values determined were presented as mean±standard error (Mean±SD). The experimental data for each group was analyzed with One-way ANOVA method in the SPSS 18.0 statistical software, and p<0.05 means that the differences are statistically significant.

[3] = rats, cited from earlier work
MG63 (osteosarcoma) = assay: MTT cell viability, human solid tumor cells; format: cell-based; settings: for IC50: read-out: concentration (IC50 value of 72 hours)
Description: (§2) Well-growing cells of above were obtained and inoculated into wells of a 96-well cell culture plate at 5000 cells/well. Individual compounds of various concentrations were added, mixed uniformly, and incubated (5% CO2) at 37° C. for 72 hours. Then the cell viability was determined by the MTT method.
(§3) b) Determine the inhibitory effects of TTD in combination with Ada A on the human solid tumor cells. The pretreatment of the cells was the same as in a). The control group was not treated with the compound while administered. […] As to the combination group, two compounds were added together into the same group of wells, with the fmal concentration being the concentration to which the IC50 of the single drugs correspond. After 72 hours of incubation, the MTT method was used for the determination of cell viability. The cell viability of the control group was set to 100% in this experiment, and the TTD, Ada A single drug and combined effects on cell viability (%) were calculated.

[4] = test system: SK-OV-3 (ovarian cancer cell); assay: MTT cell viability, human solid tumor cells; format: cell-based; settings: for IC50: read-out: concentration (IC50 value of 72 hours)
Description: as §2, §3

A549 (human lung cancer) = assay: MTT cell viability, human solid tumor cells; format: cell-based; settings: for IC50: read-out: concentration (IC50 value of 72 hours)
Description: as §2, §3

[5] = test system: mouse leukemia P388 and human gastric cancer cell line SGC-7901; settings: 0.01 μg/ml, in vitro; cited from earlier work
[6] = test system: A549 transplanted tumor (human non-small cell lung cancer cell line); assay: Example 5: Acla A on A549 transplanted tumor in nude mice; format: in vivo, BALB/c-nu nude mice
Description: Under sterile conditions, the above tumor cells were collected in the logarithmic growth phase. A549 was injected by subcutaneous injection in an amount of 6×10 6/0.2 mL/nude mice (cell viability>90%) into the right subaxillary of the nude mice, thus establishing transplated tumor models of lung cancer in nude mice. The mice were administered from the second day after the inoculation. The experimental group was intragastrically administered at the experimentally designed amount, the negative control group was intragastrically administered with sterile water, and the positive control group is intragastrically administered with Jef. Each mouse was intragastrically administered in 0.4 ml each time and 2 times a day, at 8:00, and 14:00. The administrations were successive for 14 days. The day before administration was deemed as Day 0 and the body weight and tumor size of the mice were determined every 5 days to produce a dynamic plot on body weight and tumor growth. On Day 20, the mice were sacrificed and the tumors were taken out and weighed. The tumor inhibition rate (%) was calculated after the effect of the medicament based on a tumor inhibition rate of the control group being zero.
as §1

leukemia mice = settings: cited from earlier work
[7] = test system: acute lymphoblastic leukemia (ANLL); settings: initial treatment of ANLL; cited from earlier work
[8] = test system: A549 transplanted tumor (human non-small cell lung cancer cell line); assay: Example 4: TTD on A549 transplanted tumor in nude mice; format: in vivo, BALB/c-nu nude mice; settings: A549, TTD 50 mg/kg/time intragastric, 3 times a day, 10 days, Day 24; for tumor inhibition rate: control = 0
Description: (§4) Under sterile conditions, the above tumor cells were collected in the logarithmic growth phase. A549 was injected by subcutaneous injection in an amount of 1×10 7/0 2 mL/nude mice (cell viability>90%) into the right subaxillary of the nude mice, and Hep G2 was injected by subcutaneous injection in an amount of 1×10^7/0.2 mL/nude mice (cell viability>90%) into the left subaxillary of the nude mice thus establishing transplated tumor models of lung cancer and liver cancer respectively in nude mice. The administration was carried out from the second day after the inoculation. The experimental group was intragastrically administered at the experimentally designed amount, the negative control group is intragastrically administered with sterile water, and the positive control group was intragastrically administered with Jef. Each mouse was intragastrically administered in 0.4 ml each time and 3 times a day, at 8:00, 14:00 and 20:00. The administrations were successive for 10 days. The day before administration was deemed as Day 0 and the body weight and tumor size of the mice were determined every 5 days to produce a dynamic plot on body weight and tumor growth. On Day 24, the mice were sacrificed and the tumors were taken out and weighed. The tumor inhibition rate (%) was calculated after the effect of the medicament based on a tumor inhibition rate of the control group being zero.
as §1

[9] = test system: Hep G2 transplanted tumor (human hepatoma carcinoma cell); assay: Example 4: TTD on Hep G2 transplanted tumor in nude mice; format: in vivo, BALB/c-nu nude mice; settings: Hep G2, TTD 50 mg/kg/time intragastric, 3 times a day, 10 days, Day 24
Description: as §4, with “The experimental group was intragastrically administered at the experimentally designed amount, the negative control group is intragastrically administered with sterile water, and the positive control group was intragastrically administered with Jef. Each mouse was intragastrically administered in 0.4 ml each time and 3 times a day, at 8:00, 14:00 and 20:00. The administrations were successive for 10 days.” left out, “On Day 24, the mice were sacrificed and the tumors were taken out and weighed.” left out
as §1

CC[C@@]1(O)C[C@H](O[C@H]2C[C@H](N(C)C)[C@H](O[C@H]3C[C@H](O)[C@H](O[C@H]4CCC(=O)[C@H](C)O4)[C@H](C)O3)[C@H](C)O2)c2c(cc3c(c2O)C(=O)c2c(O)cccc2C3=O)[C@H]1C(=O)OC [Acla A, aclarubicin A]
survival rate increased, compared with mice without antibiotics injection [1]: 150% | body weight, Final ([2]; Acla A 1 mg/kg/time intragastric, 2 times a day, 14 days, Day 20, Mean ± SD, n=3): 18.5 ± 1.10 g | body weight, Initial ([2]; Acla A 1 mg/kg/time intragastric, 2 times a day, 14 days, Mean ± SD, n=3): 21.0 ± 0.23 g | dynamic variation of the body weight (in words) ([2]; Acla A 1 mg/kg/time, during administration, recovered gradually after termination): partial reduction in the body weight | half-life t1/2 ([3]; intravenous injection): 16 to 21 h | bioavailability ([3]; oral administration): 35% | biological half-life t1/2 ([3]; oral administration): 36.5 h | viability at 0.1 µg/mL (MG63 (osteosarcoma); MG-63, 72 h, read-out: CV (cell viability)): 46.6% | IC50 (MG63 (osteosarcoma); MG-63, 72 h): 0.1 µg/mL | viability at 0.25 µg/mL ([4]; SK-OV-3, 72 h, read-out: CV (cell viability)): 53.4% | IC50 ([4]; SK-OV-3, 72 h): 0.25 µg/mL | viability at 0.08 µg/mL (A549 (human lung cancer); A549, 72 h, read-out: CV (cell viability)): 50.4% | IC50 (A549 (human lung cancer); A549, 72 h): 0.08 µg/mL | cloning formation inhibited [5]: 65.4% | inhibitory effect on lung cancer transplanted tumor (in words) ([6]; A549, Acla A 1 mg/kg/time): did not exhibit good inhibitory effect | Mass of tumor ([6]; A549, Acla A 1 mg/kg/time intragastric, 2 times a day, 14 days, Day 20, Mean ± SD): 0.50 ± 0.19 g | tumor inhibition rate ([6]; A549, Acla A 1 mg/kg/time intragastric, 2 times a day, 14 days, Day 20, control = 0): −51.52% | prolonging the lifetime of the mice (leukemia mice): 143% | complete remission rate (CR) [7]: up to 70%

COc1ccc2cc1Oc1ccc(cc1)C[C@H]1c3cc(c(OC)cc3CCN1C)Oc1c(OC)c(OC)cc3c1[C@H](C2)N(C)CC3 [TTD, tetrandrine]
Mass of tumor ([8]; Mean ± SD): 0.23 ± 0.35 g | tumor inhibition rate [8]: up to 38% | tumor inhibition rate ([8]; listed as TTD50): 38.02% | Mass of tumor ([9]; Mean ± SD): 0.53 ± 0.32 g | tumor inhibition rate ([9]; control = 0): −33.36% | viability at 2 µg/mL (MG63 (osteosarcoma); MG-63, MG63, TTD 2 μg/mL, 72 h, MTT, control = 100%, read-out: CV (cell viability)): 40.8% | IC50 (MG63 (osteosarcoma); MG-63, MG63, single compound, 72 h, MTT): 2 µg/mL | viability at 5 µg/mL ([4]; SK-OV-3, TTD 5 μg/mL, 72 h, MTT, control = 100%, read-out: CV (cell viability)): 55.9% | IC50 ([4]; SK-OV-3, single compound, 72 h, MTT): 5 µg/mL | viability at 8.34 µg/mL (A549 (human lung cancer); A549, TTD 8.34 μg/mL, 72 h, MTT, control = 100%, read-out: CV (cell viability)): 47.6% | IC50 (A549 (human lung cancer); A549, single compound, 72 h, MTT): 8.34 µg/mL
